Measurements reported in patent US12404232B2, “Compounds and compositions for intracellular delivery of therapeutic agents” (ModernaTX, Inc., priority 2015, dated 2025).

What was measured:
[1] = Particle size and polydispersity index of nanoparticle compositions (Zetasizer Nano ZS); assay type: physicochemical
Outline: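 Particle size and PDI by Zetasizer Nano ZS dynamic light scattering in 1×PBS. Lipid nanoparticles carried mRNA (luciferase or hEPO) with ionizable lipid:DSPC:cholesterol:PEG-DMG at 50:10:38.5:1.5 mol %.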

rat = test: Clinical chemistry and hematology in rat after intravenous administration; assay type: in vivo; design: unit not given here; settings: 2 mpk, 48 h post dose
Protocol: Sample formulations of nanoparticle compositions including different lipids were administered intravenously to rat at a dose of 2 mpk. The expression of various clinical markers was evaluated at 48 h post dose and compared to that induced by administration of MC3 formulations or phosphate buffered saline (PBS).
Table 19 summarizes the hEPO expression, IP-10 induction, liver and spleen levels, and alanine aminotransferase (ALT) and aspartate aminotransferase (AST) measured upon intravenous administration of formulations including Compounds 48, 49, and 50 to rat at 0.2 and 2 mpk and hEPO mRNA. hEPO concentrations were measured 6 hours after administration, while cytokine induction and liver and spleen levels were measured 48 hours after administration. hEPO and IP-10 concentrations are presented in pg/ml, while liver levels are provided in ng/g. ALT and AST levels are presented in international units.

mice [2] = test: Luc expression (total flux) after intramuscular administration; assay type: in vivo; settings: 6 hours after intramuscular administration, Luc mRNA (Table 5B)
mice [3] = test: Luc expression (bioluminescence, total flux) after intravenous administration to mice; assay type: in vivo
Outline: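 Lipid nanoparticle formulations carrying Luc mRNA were given intravenously to mice (n=6) at 0.5 mg/kg. Bioluminescence was imaged at 3, 6 and 24 h. Total flux was expressed as AUC relative to the standard MC3 formulation.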

non-human primates = test: Tolerability in non-human primates (clinical chemistry, hematology, observations); assay type: in vivo, Cynomolgus monkeys
Protocol: The tolerability and efficacy of nanoparticle compositions to non-human primates was also investigated using a sample formulation including Compound 18. The formulation was prepared according to the standard MC3 formulation described above and included an hEPO mRNA. Primates were administered a single dose of 0.05 (Group 1), 0.3 (Group 2), or 1.0 (Group 3) mpk via intravenous infusion for 60 minutes. Three primates were administered each dose. Expression of hEPO was measured prior to dosing and at 2, 6, 24, 48, and 96 hours post-treatment (Table 26). Table 28 includes levels of indicators of complement activation, while Table 29 includes cytokine induction data.
In general, lower doses were better tolerated. High doses induced body temperature elevation and hunched posture, which is similar to the behavior observed for primates administered higher doses of MC3 formulations.

[4] = hEPO mRNA, lipid:DSPC:Chol:PEG-DMG (50:10:38.5:1.5) (Table 10)
[5] = nanoparticle composition lipid:DSPC:cholesterol:PEG-DMG 50:10:38.5:1.5 mol %, mRNA encoding Luc or hEPO (Table 1A)

SMILES | Size (nm) ([1]; formulated with hEPO mRNA (Table 1B)) | Size (nm) [1, 4] | Size (nm) [1, 5] | Alanine aminotransferase (Concentration) (rat) | Aspartate aminotransferase (Concentration) (rat) | Lymphocytes (Concentration) (rat) | Monocytes (Concentration) (rat) | Neutrophils (Concentration) (rat) | Total flux (p/s) 0.01 mpk Dose (mice [2]) | AUC (p/s*h) (mice [3]; Luc total flux (Table 3D)) | 6 h Lipid/MC3 G.M. Luc Expression (mice [3]; i.v. administration, 6 h, geometric mean) | AUC (h*p/s) (mice [3]; i.v. administration, total Luc flux (Table 3C)) | Diameter (nm) ([1]; mRNA encoding anti-HA antibody (Table 33)) | PDI ([1]; nanoparticle composition 50:10:38.5:1.5 mol % (Table 1A)) | White blood cell counts (non-human primates; non-human primates, 0.05, 0.3 or 1.0 mpk) | reticulocyte counts on Day 5 (non-human primates; non-human primates, all groups)
CCCCCC=CCC=CCCCCCCCCC(CCCCCCCCC=CCC=CCCCCC)OC(=O)CCCN(C)C (centres unmarked) [MC3, heptatriaconta-6,9,28,31-tetraen-19-yl 4-(dimethylamino)butanoate, reference compound] | 57.7 nm | 73.7 nm | 79.7 nm | 339 | 325 | 19976 | 1429 | 4962.5 | 3.23E+07 p/s | 1.909E+011 p/s*h | 1 | 8.24E+10 h*p/s |  |  |  | 
CCCCCCCCCCCOC(=O)CCCCCN(CCO)CCCCCCCC(=O)OC(CCCCCCCC)CCCCCCCC [Compound 25, Heptadecan-9-yl 8-((2-hydroxyethyl)(6-oxo-6-(undecyloxy)hexyl)amino)octanoate] |  |  |  | 52 | 124.5 | 15924 | 2122 | 1998 |  |  |  |  |  |  |  | 
CCCCCCCCCOC(=O)CCCCCCCN(CCO)CCCCCCCC(=O)OC(CCCCCCCC)CCCCCCCC [Compound 18, Heptadecan-9-yl 8-((2-hydroxyethyl)(8-(nonyloxy)-8-oxooctyl)amino)octanoate] |  | 78.6 nm | 86.2 nm |  |  |  |  |  |  |  |  |  | 76.8 nm | 0.042 | slightly elevated in animals in the high dose group | marked increase
